{"source": "patent US9382188B2", "about": "“Aromatic ring compound” (TAKEDA PHARMACEUTICAL COMPANY LIMITED, priority 2012, dated 2016)", "target": "T1, human GPR40 (Homo sapiens, UniProt O14842)", "T1 construct": "expressed in transfected cells", "T1 sequence (O14842 whole entry)": "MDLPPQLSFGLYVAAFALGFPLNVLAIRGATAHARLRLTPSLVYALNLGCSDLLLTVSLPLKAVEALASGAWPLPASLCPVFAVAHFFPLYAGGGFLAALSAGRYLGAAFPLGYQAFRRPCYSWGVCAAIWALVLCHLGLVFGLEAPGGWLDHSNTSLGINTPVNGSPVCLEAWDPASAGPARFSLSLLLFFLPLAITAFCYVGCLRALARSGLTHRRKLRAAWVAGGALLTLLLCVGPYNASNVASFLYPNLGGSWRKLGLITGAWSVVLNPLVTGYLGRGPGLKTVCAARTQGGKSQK", "assay": "Evaluation of human GPR40 agonist activity with increase in intracellular Ca2+ concentration as an index (FLIPR Tetra)", "format": "cell-based", "conditions": "test compound 1 μM; CHO(dhfr-) cells stably expressing human GPR40; 100% = activity of 1 μM WO2009/048527 Example 99.2, 0% = DMSO", "procedure": "Evaluation of human GPR40 agonist activity with increase in intracellular Ca^2+ concentration as an index\nCHO(dhfr-) cells that stably expressed human GPR40 were suspended in MEMα (Nikken Bio Medical Laboratory) containing 10% dialysis serum (GEMINI BIO-PRODUCTS), 10 mM HEPES (Invitrogen), 100 U/mL penicillin, 100 μg/mL streptomycin (Invitrogen), and plated on a 384 well black/clear cell culture plate at 10,000 cells/well. After culture overnight in a CO2 incubator at 37° C., the culture supernatant was removed, and a loading buffer [dye attached to Calcium 5 Assay Kit (Molecular Devices) was dissolved in an assay buffer (20 mM HEPES, 0.2% fatty acid-free BSA (Sigma-Aldrich), 2.5 mM probenecid (DOJINDO)-containing HBSS (Invitrogen)) added with 0.025% Cremophor EL (DOJINDO)] was added at 37.5 μL/well. After incubation in a CO2 incubator at 37° C. for 1 hr, the cells were stood at room temperature for 15 min, an assay buffer containing the test compound at a final concentration of 1 μM was added at 12.5 μL/well in FLIPR Tetra (Molecular Devices), and the fluorescence amount was successively measured. Human GPR40 agonist activity calculated using an increase in the intracellular Ca^2+ concentration as an index, wherein the activity of 1 μM of the compound described in WO 2009/048527 (WO2009/048527 Example 99.2) was 100%, and the activity when DMSO was added instead of the test compound was 0%.", "data": [{"smiles": "CC(C)(C)Cc1cc(OCc2cccc(C(CC(=O)O)C3CC3)c2)cnc1-c1cc(OC2CCCCO2)ccc1F", "note": "(stereo not shown) [Example 44, 3-cyclopropyl-3-(3-(((5-(2,2-dimethylpropyl)-6-(2-fluoro-5-(tetrahydro-2H-pyran-2-yloxy)phenyl)pyridin-3-yl)oxy)methyl)phenyl)propanoic acid]", "values": [{"measurement": "activation at 1 µM", "value": 3, "unit": "%"}]}, {"smiles": "CC(C)(C)Cc1cc(OCc2cccc(C(CC(=O)O)C3CC3)c2)cnc1-c1ccccc1", "note": "(stereo not shown) [Example 45, 3-cyclopropyl-3-(3-(((5-(2,2-dimethylpropyl)-6-phenylpyridin-3-yl)oxy)methyl)phenyl)propanoic acid]", "values": [{"measurement": "activation at 1 µM", "value": 55, "unit": "%"}]}, {"smiles": "COc1cccc(-c2ncc(OCc3cccc(C(CC(=O)O)C4CC4)c3)cc2CC(C)(C)C)c1", "note": "(stereo not shown) [Example 46, 3-cyclopropyl-3-(3-(((5-(2,2-dimethylpropyl)-6-(3-methoxyphenyl)pyridin-3-yl)oxy)methyl)phenyl)propanoic acid]", "values": [{"measurement": "activation at 1 µM", "value": 117, "unit": "%"}]}, {"smiles": "Cc1cccc(-c2ncc(OCc3cccc(C(CC(=O)O)C4CC4)c3)cc2CC(C)(C)C)c1", "note": "(stereo not shown) [Example 47, 3-cyclopropyl-3-(3-(((5-(2,2-dimethylpropyl)-6-(3-methylphenyl)pyridin-3-yl)oxy)methyl)phenyl)propanoic acid]", "values": [{"measurement": "activation at 1 µM", "value": 92, "unit": "%"}]}, {"smiles": "COc1ccc(-c2ncc(OCc3cccc(C(CC(=O)O)C4CC4)c3)cc2CC(C)(C)C)cc1", "note": "(stereo not shown) [Example 48, 3-cyclopropyl-3-(3-(((5-(2,2-dimethylpropyl)-6-(4-methoxyphenyl)pyridin-3-yl)oxy)methyl)phenyl)propanoic acid]", "values": [{"measurement": "activation at 1 µM", "value": -1, "unit": "%"}]}, {"smiles": "CC(C)(C)Cc1cc(OCc2cccc(C(CC(=O)O)C3CC3)c2)cnc1-c1cccc(OC(F)(F)F)c1", "note": "(stereo not shown) [Example 49, 3-cyclopropyl-3-(3-(((5-(2,2-dimethylpropyl)-6-(3-(trifluoromethoxy)phenyl)pyridin-3-yl)oxy)methyl)phenyl)propanoic acid]", "values": [{"measurement": "activation at 1 µM", "value": -23, "unit": "%"}]}, {"smiles": "COc1ccccc1-c1ncc(OCc2cccc(C(CC(=O)O)C3CC3)c2)cc1CC(C)(C)C", "note": "(stereo not shown) [Example 50, 3-cyclopropyl-3-(3-(((5-(2,2-dimethylpropyl)-6-(2-methoxyphenyl)pyridin-3-yl)oxy)methyl)phenyl)propanoic acid]", "values": [{"measurement": "activation at 1 µM", "value": 9, "unit": "%"}]}, {"smiles": "CC(C)(C)Cc1cc(OCc2cccc(C(CC(=O)O)C3CC3)c2)cnc1-c1cccc(C(=O)O)c1", "note": "(stereo not shown) [Example 51, 3-(5-((3-(2-carboxy-1-cyclopropylethyl)benzyl)oxy)-3-(2,2-dimethylpropyl)pyridin-2-yl)benzoic acid]", "values": [{"measurement": "activation at 1 µM", "value": 0, "unit": "%"}]}, {"smiles": "CC(C)(C)Cc1cc(OCc2cccc(C(CC(=O)O)C3CC3)c2)cnc1-c1cccc(C(F)(F)F)c1", "note": "(stereo not shown) [Example 52, 3-cyclopropyl-3-(3-(((5-(2,2-dimethylpropyl)-6-(3-(trifluoromethyl)phenyl)pyridin-3-yl)oxy)methyl)phenyl)propanoic acid]", "values": [{"measurement": "activation at 1 µM", "value": 14, "unit": "%"}]}, {"smiles": "COc1ccc(OC)c(-c2ncc(OCc3cccc(C(CC(=O)O)C4CC4)c3)cc2CC(C)(C)C)c1", "note": "(stereo not shown) [Example 53, 3-cyclopropyl-3-(3-(((6-(2,5-dimethoxyphenyl)-5-(2,2-dimethylpropyl)pyridin-3-yl)oxy)methyl)phenyl)propanoic acid]", "values": [{"measurement": "activation at 1 µM", "value": 99, "unit": "%"}]}, {"smiles": "COc1ccc(-c2ncc(OCc3cccc(C(CC(=O)O)C4CC4)c3)cc2CC(C)(C)C)cc1OC", "note": "(stereo not shown) [Example 54, 3-cyclopropyl-3-(3-(((6-(3,4-dimethoxyphenyl)-5-(2,2-dimethylpropyl)pyridin-3-yl)oxy)methyl)phenyl)propanoic acid]", "values": [{"measurement": "activation at 1 µM", "value": 3, "unit": "%"}]}, {"smiles": "CC(C)(C)Cc1cc(OCc2cccc(C(CC(=O)O)C3CC3)c2)cnc1-c1cccc(O)c1", "note": "(stereo not shown) [Example 55, 3-cyclopropyl-3-(3-(((5-(2,2-dimethylpropyl)-6-(3-hydroxyphenyl)pyridin-3-yl)oxy)methyl)phenyl)propanoic acid]", "values": [{"measurement": "activation at 1 µM", "value": 126, "unit": "%"}]}, {"smiles": "COc1cc(OC)cc(-c2ncc(OCc3cccc(C(CC(=O)O)C4CC4)c3)cc2CC(C)(C)C)c1", "note": "(stereo not shown) [Example 56, 3-cyclopropyl-3-(3-(((6-(3,5-dimethoxyphenyl)-5-(2,2-dimethylpropyl)pyridin-3-yl)oxy)methyl)phenyl)propanoic acid]", "values": [{"measurement": "activation at 1 µM", "value": 31, "unit": "%"}]}, {"smiles": "COc1cc(-c2ncc(OCc3cccc(C(CC(=O)O)C4CC4)c3)cc2CC(C)(C)C)c(F)cn1", "note": "(stereo not shown) [Example 57, 3-cyclopropyl-3-(3-(((3-(2,2-dimethylpropyl)-5′-fluoro-2′-methoxy-2,4′-bipyridin-5-yl)oxy)methyl)phenyl)propanoic acid]", "values": [{"measurement": "activation at 1 µM", "value": 106, "unit": "%"}]}, {"smiles": "COc1ccc(C)c(-c2ncc(OCc3cccc(C(CC(=O)O)C4CC4)c3)cc2CC(C)(C)C)c1", "note": "(stereo not shown) [Example 58, 3-cyclopropyl-3-(3-(((5-(2,2-dimethylpropyl)-6-(5-methoxy-2-methylphenyl)pyridin-3-yl)oxy)methyl)phenyl)propanoic acid]", "values": [{"measurement": "activation at 1 µM", "value": 114, "unit": "%"}]}, {"smiles": "COc1ccc(Cl)c(-c2ncc(OCc3cccc(C(CC(=O)O)C4CC4)c3)cc2CC(C)(C)C)c1", "note": "(stereo not shown) [Example 59, 3-(3-(((6-(2-chloro-5-methoxyphenyl)-5-(2,2-dimethylpropyl)pyridin-3-yl)oxy)methyl)phenyl)-3-cyclopropylpropanoic acid]", "values": [{"measurement": "activation at 1 µM", "value": 115, "unit": "%"}]}, {"smiles": "CC(C)(C)Cc1cc(OCc2cccc(C(CC(=O)O)C3CC3)c2)cnc1-c1cc(C#N)ccc1F", "note": "(stereo not shown) [Example 60, 3-(3-(((6-(5-cyano-2-fluorophenyl)-5-(2,2-dimethylpropyl)pyridin-3-yl)oxy)methyl)phenyl)-3-cyclopropylpropanoic acid]", "values": [{"measurement": "activation at 1 µM", "value": 56, "unit": "%"}]}, {"smiles": "CC(C)(C)Cc1cc(OCc2cccc(C(CC(=O)O)C3CC3)c2)cnc1-c1ccc(OC(F)(F)F)cc1", "note": "(stereo not shown) [Example 61, 3-cyclopropyl-3-(3-(((5-(2,2-dimethylpropyl)-6-(4-(trifluoromethoxy)phenyl)pyridin-3-yl)oxy)methyl)phenyl)propanoic acid]", "values": [{"measurement": "activation at 1 µM", "value": 8, "unit": "%"}]}, {"smiles": "CC(C)(C)Cc1cc(OCc2cccc(C(CC(=O)O)C3CC3)c2)cnc1-c1cccc(NS(C)(=O)=O)c1", "note": "(stereo not shown) [Example 62, 3-cyclopropyl-3-(3-(((5-(2,2-dimethylpropyl)-6-(3-((methylsulfonyl)amino)phenyl)pyridin-3-yl)oxy)methyl)phenyl)propanoic acid]", "values": [{"measurement": "activation at 1 µM", "value": 4, "unit": "%"}]}, {"smiles": "Cc1cncc(-c2ncc(OCc3cccc(C(CC(=O)O)C4CC4)c3)cc2CC(C)(C)C)c1", "note": "(stereo not shown) [Example 63, 3-cyclopropyl-3-(3-(((3-(2,2-dimethylpropyl)-5′-methyl-2,3′-bipyridin-5-yl)oxy)methyl)phenyl)propanoic acid]", "values": [{"measurement": "activation at 1 µM", "value": 21, "unit": "%"}]}, {"smiles": "COc1cncc(-c2ncc(OCc3cccc(C(CC(=O)O)C4CC4)c3)cc2CC(C)(C)C)c1", "note": "(stereo not shown) [Example 66, 3-cyclopropyl-3-(3-(((3-(2,2-dimethylpropyl)-5′-methoxy-2,3′-bipyridin-5-yl)oxy)methyl)phenyl)propanoic acid]", "values": [{"measurement": "activation at 1 µM", "value": 57, "unit": "%"}]}, {"smiles": "CC(C)(C)Cc1cc(OCc2cccc(C(CC(=O)O)C3CC3)c2)cnc1-c1cccc(S(=O)(=O)N2CCOCC2)c1", "note": "(stereo not shown) [Example 67, 3-cyclopropyl-3-(3-(((5-(2,2-dimethylpropyl)-6-(3-(morpholin-4-ylsulfonyl)phenyl)pyridin-3-yl)oxy)methyl)phenyl)propanoic acid]", "values": [{"measurement": "activation at 1 µM", "value": 8, "unit": "%"}]}, {"smiles": "CCOc1ccc(F)c(-c2ncc(OCc3cccc(C(CC(=O)O)C4CC4)c3)cc2CC(C)(C)C)c1", "note": "(stereo not shown) [Example 68, 3-cyclopropyl-3-(3-(((5-(2,2-dimethylpropyl)-6-(5-ethoxy-2-fluorophenyl)pyridin-3-yl)oxy)methyl)phenyl)propanoic acid]", "values": [{"measurement": "activation at 1 µM", "value": 116, "unit": "%"}]}, {"smiles": "CC(C)Oc1ccc(F)c(-c2ncc(OCc3cccc(C(CC(=O)O)C4CC4)c3)cc2CC(C)(C)C)c1", "note": "(stereo not shown) [Example 69, 3-cyclopropyl-3-(3-(((5-(2,2-dimethylpropyl)-6-(2-fluoro-5-isopropoxyphenyl)pyridin-3-yl)oxy)methyl)phenyl)propanoic acid]", "values": [{"measurement": "activation at 1 µM", "value": 61, "unit": "%"}]}, {"smiles": "CC(C)(C)Cc1cc(OCc2cccc(C(CC(=O)O)C3CC3)c2)cnc1-c1cc(OCC(F)(F)F)ccc1F", "note": "(stereo not shown) [Example 70, 3-cyclopropyl-3-(3-(((5-(2,2-dimethylpropyl)-6-(2-fluoro-5-(2,2,2-trifluoroethoxy)phenyl)pyridin-3-yl)oxy)methyl)phenyl)propanoic acid]", "values": [{"measurement": "activation at 1 µM", "value": -8, "unit": "%"}]}, {"smiles": "CCCCCOc1ccc(F)c(-c2ncc(OCc3cccc(C(CC(=O)O)C4CC4)c3)cc2CC(C)(C)C)c1", "note": "(stereo not shown) [Example 71, 3-cyclopropyl-3-(3-(((5-(2,2-dimethylpropyl)-6-(2-fluoro-5-(pentyloxy)phenyl)pyridin-3-yl)oxy)methyl)phenyl)propanoic acid]", "values": [{"measurement": "activation at 1 µM", "value": 1, "unit": "%"}]}, {"smiles": "COCCCOc1ccc(F)c(-c2ncc(OCc3cccc(C(CC(=O)O)C4CC4)c3)cc2CC(C)(C)C)c1", "note": "(stereo not shown) [Example 72, 3-cyclopropyl-3-(3-(((5-(2,2-dimethylpropyl)-6-(2-fluoro-5-(3-methoxypropoxy)phenyl)pyridin-3-yl)oxy)methyl)phenyl)propanoic acid]", "values": [{"measurement": "activation at 1 µM", "value": 1, "unit": "%"}]}, {"smiles": "CC(C)(C)Cc1cc(OCc2cccc(C(CC(=O)O)C3CC3)c2)cnc1-c1cc(O)ccc1F", "note": "(stereo not shown) [Example 73, 3-cyclopropyl-3-(3-(((5-(2,2-dimethylpropyl)-6-(2-fluoro-5-hydroxyphenyl)pyridin-3-yl)oxy)methyl)phenyl)propanoic acid]", "values": [{"measurement": "activation at 1 µM", "value": 123, "unit": "%"}]}]}
